Assay results reported in ChEMBL document CHEMBL1201862, “PubChem BioAssay data set” (2004).
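Assay format: 96-well plates, 48-hour exposure. GI50 marks 50% less growth.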 The source made the active and inactive calls. Cut-off read from the data, not from the text of the source: active = GI50 up to about 1.1 µM and inactive = higher.

What was measured:
Experiment in all cases: NCI anticancer screen, dose series, 48 h
786-0 = test system: 786-0
A498 = test system: A498
A549 = test system: A549
ACHN = test system: ACHN
CCRF-CEM = test system: CCRF-CEM
COLO 205 = test system: COLO 205
DLD-1 = test system: DLD-1
DMS-114 = test system: DMS-114
DMS-273 = test system: DMS-273
HCT-116 = test system: HCT-116
HCT-15 = test system: HCT-15
HL-60 = test system: HL-60
HOP-62 = test system: HOP-62
HOP-92 = test system: HOP-92
HT-29 = test system: HT-29
IGROV-1 = test system: IGROV-1
KM-20L2 = test system: KM-20L2
KM12 = test system: KM12
LOX IMVI = test system: LOX IMVI
LXFL 529 = test system: LXFL 529
M14 = test system: M14
M19-MEL = test system: M19-MEL
MOLT-4 = test system: MOLT-4
Malme-3M = test system: Malme-3M
NCI-H226 = test system: NCI-H226
NCI-H23 = test system: NCI-H23
NCI-H460 = test system: NCI-H460
NCI-H522 = test system: NCI-H522
OVCAR-3 = test system: OVCAR-3
OVCAR-4 = test system: OVCAR-4
OVCAR-8 = test system: OVCAR-8
RPMI-8226 = test system: RPMI-8226
SF-268 = test system: SF-268
SF-295 = test system: SF-295
SF-539 = test system: SF-539
SK-MEL-28 = test system: SK-MEL-28
SK-MEL-2 = test system: SK-MEL-2
SK-MEL-5 = test system: SK-MEL-5
SK-OV-3 = test system: SK-OV-3
SN12C = test system: SN12C
SNB-75 = test system: SNB-75
SNB-78 = test system: SNB-78
SR = test system: SR
TK-10 = test system: TK-10
U-251 = test system: U-251
UACC-257 = test system: UACC-257
UO-31 = test system: UO-31
XF498 = test system: XF498
EKVX = test system: EKVX
HCC 2998 = test system: HCC 2998
K562 = test system: K562
OVCAR-5 = test system: OVCAR-5
RXF 393 = test system: RXF 393
SNB-19 = test system: SNB-19
SW-620 = test system: SW-620
UACC-62 = test system: UACC-62
HOP-18 = test system: HOP-18
CAKI-1 = test system: CAKI-1

Measured: GI50

O=C(CSc1nc(-c2ccccc2)c(-c2ccccc2)[nH]1)N/N=C/c1ccc([N+](=O)[O-])cc1
14 µM: HCT-15
inactive: 786-0 16.8 µM | A498 14 µM | A549 29.6 µM | ACHN 26.7 µM | CCRF-CEM 21.4 µM | COLO 205 16.7 µM | DLD-1 18.1 µM | DMS-114 18.5 µM | DMS-273 14.1 µM | HCT-116 18.7 µM | HL-60 34.8 µM | HOP-62 17.7 µM | HOP-92 13.8 µM | HT-29 19.2 µM | IGROV-1 17.6 µM | KM-20L2 8.87 µM | KM12 17.3 µM | LOX IMVI 15.9 µM | LXFL 529 20.4 µM | M14 17.4 µM | M19-MEL 17.1 µM | MOLT-4 18.6 µM | Malme-3M 18.4 µM | NCI-H226 13.6 µM | NCI-H23 14.7 µM | NCI-H460 19.4 µM | NCI-H522 14.5 µM | OVCAR-3 15.1 µM | OVCAR-4 23 µM | OVCAR-8 10.3 µM | RPMI-8226 16.6 µM | SF-268 16.2 µM | SF-295 19.8 µM | SF-539 16 µM | SK-MEL-28 15.6 µM | SK-MEL-2 13.8 µM | SK-MEL-5 17.3 µM | SK-OV-3 14.5 µM | SN12C 16.2 µM | SNB-75 21.8 µM | SNB-78 21.2 µM | SR 30.9 µM | TK-10 15.7 µM | U-251 14.1 µM | UACC-257 19 µM | UO-31 14.7 µM | XF498 13.2 µM

Cc1cccc2c1Oc1cc(Cl)ccc1C2NC(=O)CN(C)C (centres undefined)
inactive: 786-0 14.5 µM | A549 > 100 µM | ACHN 22.8 µM | CCRF-CEM 49.1 µM | COLO 205 33.5 µM | DLD-1 58.3 µM | DMS-114 34.9 µM | DMS-273 28.8 µM | EKVX 26.5 µM | HCC 2998 34.8 µM | HCT-116 27.5 µM | HL-60 17.1 µM | HOP-62 57.7 µM | HT-29 36.6 µM | IGROV-1 35.2 µM | K562 36 µM | KM-20L2 20 µM | LOX IMVI 42.6 µM | LXFL 529 57.4 µM | M14 24 µM | M19-MEL 20.9 µM | MOLT-4 29.2 µM | NCI-H226 99.8 µM | NCI-H23 92 µM | NCI-H460 33.8 µM | OVCAR-4 53.5 µM | OVCAR-5 > 100 µM | OVCAR-8 > 100 µM | RPMI-8226 29.2 µM | RXF 393 26.5 µM | SF-268 74.3 µM | SF-539 80.5 µM | SK-MEL-28 27.1 µM | SK-MEL-5 21.6 µM | SK-OV-3 73.8 µM | SN12C 63.1 µM | SNB-19 54 µM | SNB-75 21.1 µM | SNB-78 50.7 µM | SR 31.4 µM | SW-620 66.4 µM | TK-10 > 100 µM | UACC-257 31.6 µM | UACC-62 24.3 µM | UO-31 28.8 µM
45.2 µM: HCT-15

C=C1CCc2occ(C)c2C2C1C1=C(CC(C)C1=O)C1OC12C (centres undefined)
inactive: 786-0 > 100 µM | A498 > 100 µM | A549 > 100 µM | ACHN > 100 µM | CCRF-CEM > 100 µM | COLO 205 > 100 µM | DLD-1 > 100 µM | DMS-114 99.1 µM | EKVX > 100 µM | HCC 2998 > 100 µM | HCT-116 83 µM | HOP-18 2.26 µM | HOP-62 > 100 µM | HOP-92 > 100 µM | HT-29 > 100 µM | IGROV-1 > 100 µM | K562 > 100 µM | KM-20L2 > 100 µM | KM12 > 100 µM | LOX IMVI > 100 µM | LXFL 529 > 100 µM | M14 > 100 µM | M19-MEL > 100 µM | MOLT-4 > 100 µM | Malme-3M > 100 µM | NCI-H226 > 100 µM | NCI-H23 > 100 µM | NCI-H460 > 100 µM | NCI-H522 44.8 µM | OVCAR-3 > 100 µM | OVCAR-4 > 100 µM | OVCAR-5 21.8 µM | OVCAR-8 > 100 µM | RXF 393 > 100 µM | SF-268 > 100 µM | SF-295 > 100 µM | SF-539 > 100 µM | SK-MEL-28 > 100 µM | SK-MEL-2 > 100 µM | SK-MEL-5 52.2 µM | SK-OV-3 > 100 µM | SN12C > 100 µM | SNB-19 26.5 µM | SNB-75 34.7 µM | SNB-78 > 100 µM | SW-620 > 100 µM | TK-10 > 100 µM | U-251 > 100 µM | UACC-257 > 100 µM | UACC-62 52 µM | UO-31 4.03 µM | XF498 91.6 µM
> 100 µM: HCT-15

CC1C(=O)N(C)C2(CO)C(=O)O[C@H](C)C12O (some centres undefined)
active: HOP-92 < 0.01 µM
inactive: 786-0 > 100 µM | A549 > 100 µM | CAKI-1 > 100 µM | COLO 205 > 100 µM | DLD-1 > 100 µM | DMS-114 > 100 µM | EKVX > 100 µM | HCC 2998 > 100 µM | HCT-116 > 100 µM | HOP-18 > 100 µM | HOP-62 > 100 µM | HT-29 > 100 µM | IGROV-1 > 100 µM | K562 > 100 µM | KM12 > 100 µM | M14 > 100 µM | M19-MEL > 100 µM | MOLT-4 > 100 µM | Malme-3M > 100 µM | NCI-H23 > 100 µM | OVCAR-3 > 100 µM | OVCAR-4 > 100 µM | OVCAR-5 > 100 µM | OVCAR-8 > 100 µM | RPMI-8226 > 100 µM | RXF 393 > 100 µM | SF-268 > 100 µM | SF-295 28.1 µM | SF-539 > 100 µM | SK-MEL-28 > 100 µM | SK-MEL-2 > 100 µM | SK-MEL-5 > 100 µM | SK-OV-3 > 100 µM | SNB-19 > 100 µM | SNB-78 > 100 µM | SR > 100 µM | TK-10 > 100 µM | U-251 > 100 µM | UACC-62 > 100 µM | UO-31 > 100 µM
> 100 µM: HCT-15
